Data from patent US20260090980A1, “COSMETIC COMPOSITIONS AND METHODS OF USING THE SAME” (MARY KAY INC., priority 2022, published 2026).

Tested on: lipolysis
Assay: In-vitro activity: lipolysis
Assay type: cell-based
Details: 3 %

Cn1c(=O)c2c(ncn2C)n(C)c1=O [Caffeine]
Activity: lipolysis: Lipolysis
